Data taken from US4022895A, “Substituted phenylglycylcephalosporins” (SmithKline Corporation, priority 1975, dated 1977).
Values after ≈ are worked out from the molar mass of the structure shown. Where two headings read alike, the source gives them in different places.

Key:
[1] = tested on: E. coli HH 33779; test: In vitro antibacterial activity (MIC); type: cell-based; settings: Escherichia coli, HH33779; E. coli HH 33779, in vitro; read-out: MIC
Description: (§1) The compounds of this invention have antibacterial activity against Gram-positive and Gram-negative organisms. Minimum inhibitory concentrations (MIC's) ranged from 0.4 to >200 μg/ml in in vitro testing.

[2] = tested on: E.coli SK 12140; test: In vitro antibacterial activity (MIC); type: cell-based; settings: Escherichia coli, SK12140
Description: as §1

[3] = tested on: Entero. aerog. ATCC 13048; test: In vitro antibacterial activity (MIC); type: cell-based; settings: Entero. aerog. ATCC 13048, in vitro; read-out: MIC
Description: as §1

[4] = tested on: Kleb. pneumo. SK 1200; test: In vitro antibacterial activity (MIC); type: cell-based
Description: as §1

[5] = tested on: Kleb. pneumo. SK 4200; test: In vitro antibacterial activity (MIC); type: cell-based; settings: Kleb. pneumo. SK 4200, in vitro; read-out: MIC
Description: as §1

[6] = tested on: Proteus morgani 179; test: In vitro antibacterial activity (MIC); type: cell-based; settings: Proteus morgani 179, in vitro; read-out: MIC
Description: as §1

[7] = tested on: S.aureus HH 127; test: In vitro antibacterial activity (MIC); type: cell-based; settings: Staphylococcus aureus, HH127; S.aureus HH 127, in vitro; read-out: MIC
Description: as §1

[8] = tested on: S.aureus SK 23390; test: In vitro antibacterial activity (MIC); type: cell-based; settings: Staphylococcus aureus, SK23390
Description: as §1

[9] = tested on: S.aureus Villaluz; test: In vitro antibacterial activity (MIC); type: cell-based; settings: Staphylococcus aureus
Description: as §1

[10] = tested on: Sal. paratyphl ATCC 12176; test: In vitro antibacterial activity (MIC); type: cell-based
Description: as §1

[11] = tested on: Strep. faecalis HH 34358; test: In vitro antibacterial activity (MIC); type: cell-based; settings: Enterococcus faecalis, HH34358; Strep. faecalis HH 34358, in vitro
Description: as §1

[12] = tested on: Klebs.pneumo. 4200; test: In vivo activity (ED50) against Klebs.pneumo. 4200
[13] = tested on: Shig. paradys HH 112; test: In vitro antibacterial activity (MIC); type: cell-based
Description: as §1

[14] = tested on: E.coli 12140; test: In vivo activity (ED50) against E.coli 12140
[15] = Kleb. pneumo. SK 1200, in vitro, read-out: MIC
[16] = S.aureus SK 23390, in vitro, read-out: MIC
[17] = po, Klebs.pneumo. 4200, p.o., read-out: ED50
[18] = sc, Klebs.pneumo. 4200, s.c., read-out: ED50
[19] = E.coli SK 12140, in vitro, read-out: MIC
[20] = Shig. paradys HH 112, in vitro, read-out: MIC
[21] = Escherichia coli, 12140, po, E.coli 12140, p.o.
[22] = Escherichia coli, 12140, sc, E.coli 12140, s.c.

SMILES | MIC [1] [µg/mL] | MIC [3] [µg/mL] | MIC [4, 15] [µg/mL] | MIC [5] [µg/mL] | MIC [6] [µg/mL] | MIC [7] [µg/mL] | MIC [8, 16] [µg/mL] | MIC [9] [µg/mL] | MIC [10] [µg/mL] | MIC [11] [µg/mL] | ED50 [12, 17] [mg/kg] | ED50 [12, 18] [mg/kg] | MIC [2, 19] [µg/mL] | MIC [13, 20] [µg/mL] | ED50 [14, 21] [mg/kg] | ED50 [14, 22] [mg/kg] | further results
Cc1nnc(SCC2=C(C(=O)O)N3C(=O)C(NC(=O)[C@H](N)c4ccc(SCCC(=O)O)cc4)C3SC2)s1 (stereo partly drawn) [Compound No. 61726, 7-[D-α-Amino-α-(4'-carboxyethylthiophenyl)acetamido]-3-(5-methyl-1,3,4-thiadiazol-2-ylthiomethyl)-3-cephem-4-carboxylic acid] | 25 (≈ 43 µM) | 25 (≈ 43 µM) | 6.3 (≈ 10.8 µM) | 6.3 (≈ 10.8 µM) | 200 (≈ 344 µM) | 6.3 (≈ 10.8 µM) | 6.3 (≈ 10.8 µM) | 50 (≈ 86 µM) | 12.5 (≈ 21.5 µM) | 50 (≈ 86 µM) | > 50 | 50 | – | – | – | – | MIC [2]: 12.5 µg/mL (≈ 21.5 µM)
NC(=O)COc1ccc([C@@H](N)C(=O)NC2C(=O)N3C(C(=O)O)=C(CSc4c[nH]nn4)CSC23)cc1 (stereo partly drawn) [Compound No. 91726, 7-[D-α-Amino-α -(4'-carbamylmethoxyphenyl)acetamido]-3-(1,2,3-triazol-4-ylthiomethyl)-3-cephem-4-carboxylic acid] | 25 (≈ 48.1 µM) | 50 (≈ 96.2 µM) | 12.5 (≈ 24.1 µM) | 12.5 (≈ 24.1 µM) | – | 6.3 (≈ 12.1 µM) | 6.3 (≈ 12.1 µM) | 50 (≈ 96.2 µM) | 6.3 (≈ 12.1 µM) | 200 (≈ 385 µM) | 13.6 | 12.5 | 50 (≈ 96.2 µM) | 6.3 (≈ 12.1 µM) | 25 | 14 | –
Cn1nnnc1SCC1=C(C(=O)O)N2C(=O)C(NC(=O)[C@H](N)c3ccc(NCC(=O)O)cc3)C2SC1 (stereo partly drawn) [Compound No. 76746, 7-[D-α-Amino-α-(4'-carboxymethylaminophenyl)acetamido]-3-(1-methyl-1,2,3,4-tetrazol-5-ylthiomethyl)-3-cephem-4-carboxylic acid] | 1.6 (≈ 2.99 µM) | 1.6 (≈ 2.99 µM) | 1.6 (≈ 2.99 µM) | 0.8 (≈ 1.5 µM) | 6.3 (≈ 11.8 µM) | 6.3 (≈ 11.8 µM) | 6.3 (≈ 11.8 µM) | 50 (≈ 93.5 µM) | 3.1 (≈ 5.8 µM) | 100 (≈ 187 µM) | – | – | 1.6 (≈ 2.99 µM) | 3.1 (≈ 5.8 µM) | – | – | –
Cc1nnc(SCC2=C(C(=O)O)N3C(=O)C(NC(=O)C(N)c4ccc(OCC(N)=O)cc4)C3SC2)s1 (stereo not drawn) [*71816] | 50 (≈ 90.8 µM) | 100 (≈ 182 µM) | 50 (≈ 90.8 µM) | 25 (≈ 45.4 µM) | – | 25 (≈ 45.4 µM) | – | 100 (≈ 182 µM) | 12.5 (≈ 22.7 µM) | 200 (≈ 363 µM) | 13.7 | 11.5 | 50 (≈ 90.8 µM) | 12.5 (≈ 22.7 µM) | 21.5 | 13.7 | MIC [8]: 12.5 µg/mL (≈ 22.7 µM)
COC(=O)CNc1ccc([C@@H](N)C(=O)NC2C(=O)N3C(C(=O)O)=C(CSc4nnc(C)s4)CSC23)cc1 (stereo partly drawn) [Compound No. 96146, 7-[D-α-Amino-α-(4'-carbomethoxymethylaminophenyl)-acetamido]-3-(5-methyl-1,3,4-thiadiazol-2-ylthiomethyl)-3-cephem-4-carboxylic acid] | 100 (≈ 177 µM) | 100 (≈ 177 µM) | 50 (≈ 88.5 µM) | 50 (≈ 88.5 µM) | > 200 | 6.3 (≈ 11.2 µM) | 6.3 (≈ 11.2 µM) | 50 (≈ 88.5 µM) | 25 (≈ 44.3 µM) | 25 (≈ 44.3 µM) | 17 | 2.9 | 50 (≈ 88.5 µM) | 25 (≈ 44.3 µM) | 16 | 4.7 | –
COC(=O)COc1ccc([C@@H](N)C(=O)NC2C(=O)N3C(C(=O)O)=C(CSc4nnnn4C)CSC23)cc1 (stereo partly drawn) [Compound No. 26436, 7-[D-α-Amino-α-(4'-carbomethoxymethoxyphenyl)acetamido]-3-(1-methyl-1,2,3,4-tetrazol-5-ylthiomethyl)-3-cephem-4-carboxylic acid] | 12.5 (≈ 22.7 µM) | 25 (≈ 45.5 µM) | 6.3 (≈ 11.5 µM) | 6.3 (≈ 11.5 µM) | 50 (≈ 91 µM) | 6.3 (≈ 11.5 µM) | 6.3 (≈ 11.5 µM) | 25 (≈ 45.5 µM) | 3.1 (≈ 5.64 µM) | 50 (≈ 91 µM) | 5.5 | 1.5 | 12.5 (≈ 22.7 µM) | – | 9.6 | 1.2 | MIC [13]: 6.5 µg/mL (≈ 11.8 µM)
COC(=O)COc1ccc([C@@H](N)C(=O)NC2C(=O)N3C(C(=O)O)=C(CSc4nnc(C)s4)CSC23)cc1 (stereo partly drawn) [Compound No. 96826, 7-[D-α-Amino-α-(4'-carbomethoxymethoxyphenyl)acetamido]-3-(5-methyl-1,3,4-thiadiazol-2-ylthiomethyl)-3-cephem-4-carboxylic acid] | 50 (≈ 88.4 µM) | 50 (≈ 88.4 µM) | 25 (≈ 44.2 µM) | 25 (≈ 44.2 µM) | 25 (≈ 44.2 µM) | 3.1 (≈ 5.48 µM) | 3.1 (≈ 5.48 µM) | 25 (≈ 44.2 µM) | – | 25 (≈ 44.2 µM) | – | 7.2 | 25 (≈ 44.2 µM) | 12.5 (≈ 22.1 µM) | 9.4 | < 3 | ED50 ([12]; po): 12.5 mg/kg
COC(=O)COc1ccc([C@@H](N)C(=O)NC2C(=O)N3C(C(=O)O)=C(CSc4c[nH]nn4)CSC23)cc1 (stereo partly drawn) [Compound No. 19736, 7-[D-α-Amino-α-(4'-carbomethoxymethoxyphenyl)acetamido]-3-(1,2,3-triazol-4-ylthiomethyl)-3-cephem-4-carboxylic acid] | 100 (≈ 187 µM) | > 200 | 50 (≈ 93.5 µM) | 50 (≈ 93.5 µM) | > 200 | 12.5 (≈ 23.4 µM) | 12.5 (≈ 23.4 µM) | 200 (≈ 374 µM) | 25 (≈ 46.8 µM) | 100 (≈ 187 µM) | – | – | 50 (≈ 93.5 µM) | 25 (≈ 46.8 µM) | 25 | 34 | –
Cc1nnc(SCC2=C(C(=O)O)N3C(=O)C(NC(=O)C(N)c4ccc(OCC(=O)O)cc4)C3SC2)s1 (stereo not drawn) [*59216] | 6.3 to 25 (≈ 11.4 to 45.3 µM) | 12.5 to 50 (≈ 22.7 to 90.6 µM) | – | 1.6 to 6.3 (≈ 2.9 to 11.4 µM) | – | 6.3 to 25 (≈ 11.4 to 45.3 µM) | 100 to 200 (≈ 181 to 363 µM) | 100 to 200 (≈ 181 to 363 µM) | 3.1 to 12.5 (≈ 5.62 to 22.7 µM) | 50 to 200 (≈ 90.6 to 363 µM) | 29 | – | – | 1.6 to 12.5 (≈ 2.9 to 22.7 µM) | – | 6.2 | MIC [2]: 3.1 to 12.5 µg/mL (≈ 5.62 to 22.7 µM); MIC [4]: 3.1 to 12.5 µg/mL (≈ 5.62 to 22.7 µM)
CC(=O)OCC1=C(C(=O)O)N2C(=O)C(NC(=O)[C@H](N)c3ccc(OCC(=O)O)cc3)C2SC1 (stereo partly drawn) [Compound No. 60326, 7-[D-α-Amino-α-(4'-carboxymethoxyphenyl)acetamido]-cephalosporanic acid] | 25 (≈ 52.1 µM) | 25 (≈ 52.1 µM) | 6.3 (≈ 13.1 µM) | 6.3 (≈ 13.1 µM) | > 200 | 12.5 (≈ 26.1 µM) | 12.5 (≈ 26.1 µM) | 200 (≈ 417 µM) | 3.1 (≈ 6.47 µM) | 200 (≈ 417 µM) | 63 | 12.5 | 6.3 (≈ 13.1 µM) | – | 200 | 11.2 | –
Cn1nnnc1SCC1=C(C(=O)O)N2C(=O)C(NC(=O)[C@H](N)c3ccc(OCC(=O)O)cc3)C2SC1 (stereo partly drawn) [Compound No. 42526, 7-[D-α-Amino-α-(4'-carboxymethoxyphenyl)acetamido]-3-(1-methyl-1,2,3,4-tetrazol-5-ylthiomethyl)-3-cephem-4-carboxylic acid] | 12.5 (≈ 23.3 µM) | 12.5 (≈ 23.3 µM) | 3.1 (≈ 5.79 µM) | 3.1 (≈ 5.79 µM) | 100 (≈ 187 µM) | 25 (≈ 46.7 µM) | 25 (≈ 46.7 µM) | 200 (≈ 373 µM) | 6.3 (≈ 11.8 µM) | > 200 | 33 | 5.4 | 6.3 (≈ 11.8 µM) | 6.3 (≈ 11.8 µM) | > 50 | 9.5 | –
COC(=O)COc1ccc([C@@H](N)C(=O)NC2C(=O)N3C(C(=O)O)=C(C)CSC23)cc1 (stereo partly drawn) [Compound No. 07826, 7-[D-α-Amino-α-(4'-carbomethoxymethoxyphenyl)acetamido]-3-desacetoxycephalosporanic acid] | > 200 | > 200 | 100 (≈ 230 µM) | 100 (≈ 230 µM) | – | 6.3 (≈ 14.5 µM) | 6.3 (≈ 14.5 µM) | 200 (≈ 459 µM) | 50 (≈ 115 µM) | 100 (≈ 230 µM) | – | – | 100 (≈ 230 µM) | 50 (≈ 115 µM) | – | – | –
